Ki data for 15 compounds are collected here from ChEMBL document CHEMBL1127841, “Adenosine deaminase inhibitors: synthesis and structure-activity relationships of 2-hydroxy-3-nonyl derivatives of azoles” (J Med Chem, 1994).

The assay concerns the target T1, Adenosine deaminase (Bos taurus, UniProt P56658).
T1 sequence (P56658 whole entry): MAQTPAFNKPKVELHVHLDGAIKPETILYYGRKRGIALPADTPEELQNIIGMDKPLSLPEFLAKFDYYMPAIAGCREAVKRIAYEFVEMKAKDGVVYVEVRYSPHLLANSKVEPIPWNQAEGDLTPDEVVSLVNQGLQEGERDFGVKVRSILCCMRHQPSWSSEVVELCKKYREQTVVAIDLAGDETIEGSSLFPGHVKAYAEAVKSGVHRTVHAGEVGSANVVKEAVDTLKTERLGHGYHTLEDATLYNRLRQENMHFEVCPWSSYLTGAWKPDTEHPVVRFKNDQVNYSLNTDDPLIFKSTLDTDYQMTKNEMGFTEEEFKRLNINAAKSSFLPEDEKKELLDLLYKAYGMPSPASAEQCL
Description: In vitro inhibition of adenosine deaminase isolated from calf intestine.
Usually Ki stands for a measure of affinity in units of concentration, obtained from inhibition or displacement. Regarding `CCCCCCC(C(C)O)n1ccnc1` (stereo in doubt; 6t), the affinity corresponds to a Ki of 1.8 µM. For the compound `CCCCCCC(C(C)O)n1ncnn1` (stereo in doubt; 25e), the Ki was 9.6 µM.

For `CCCCCCC(C(C)O)n1cnnn1` (stereo in doubt; 23t), the inhibition constant Ki is 15 µM.

Regarding `CCCCCCC(C(C)O)n1ncnn1` (stereo in doubt; 25t), the Ki was above 1000 µM. The result for `CCCCCCC(C(C)O)n1ccnc1` (stereo in doubt; 6e) reads 0.7 µM; that for `CCCCCCC(C(C)O)n1cnnn1` (stereo in doubt; 23e), 0.6 µM; that for `CCCCCCC(C(C)O)n1cncn1` (stereo in doubt; 18t), 1 µM. For the compound `CCCCCCC(C(C)O)n1cnc2c(N)nccc21` (stereo not given), the Ki came to 0.16 µM. The result for `CCCCCCC(C(C)O)n1ccnn1` (stereo in doubt; 13t) reads 100 µM.

In turn, `CCCCCCC(C(C)O)n1nccn1` (stereo not given) registered a Ki above 400 µM. On to `CCCCCCC(C(C)O)n1ccnn1` (stereo in doubt; 13e), for which the affinity corresponds to a Ki of 24 µM. `CCCCCCC(C(C)O)n1cnc2c(N)ccnc21` (stereo not given) returned a Ki of 0.01 µM. The result for `CCCCCCC(C(C)O)n1cccn1` (stereo not given) reads above 1000 µM. The result for `CCCCCCC(C(C)O)n1cncn1` (stereo in doubt; 18e) reads 0.3 µM; that for `CCCCCCC(C(C)O)n1cnnc1` (stereo not given), 26 µM.
